Laboratory results: patent US5760248A, “Tachykinin antagonists” (A.Menarini Industrie Farmaceutiche Riunite S.r.l., priority 1993, dated 1998)

Target: T1, NK1 receptor (Homo sapiens, UniProt P25103)
T1 construct: endogenous in cells; host or cells: IM9 cells (intact)
Assay: [3H] SP binding assay in IM9 Cell Line (intact cells)
Procedure: Assessment of biological activity (antagonist activity on NK1 receptor) of compounds of this invention was performed by means of the following binding and functional assays:
[3H] SP binding assay in IM9 Cell Line
Binding assay was performed with intact cells as described by Goso et al (Eur.J.Pharmacol. 254,221,1994).

T1 sequence (P25103 whole entry): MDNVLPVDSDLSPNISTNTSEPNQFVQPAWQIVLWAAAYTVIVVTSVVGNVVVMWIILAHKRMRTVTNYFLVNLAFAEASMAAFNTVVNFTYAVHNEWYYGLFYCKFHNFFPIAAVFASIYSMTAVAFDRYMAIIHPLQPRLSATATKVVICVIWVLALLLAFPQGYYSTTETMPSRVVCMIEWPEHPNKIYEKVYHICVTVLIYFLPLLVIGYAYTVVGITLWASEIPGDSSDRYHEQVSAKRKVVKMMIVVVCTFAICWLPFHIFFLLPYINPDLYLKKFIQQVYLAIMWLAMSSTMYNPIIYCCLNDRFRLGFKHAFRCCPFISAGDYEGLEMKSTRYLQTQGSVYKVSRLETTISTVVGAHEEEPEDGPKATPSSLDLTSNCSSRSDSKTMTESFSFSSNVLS

O=C(NC1CCCCC1C(=O)N[C@@H](Cc1ccccc1)C(=O)OCc1ccccc1)c1c[nH]c2ccccc12 (stereo partly drawn) [1 (fast)] was tested, and the “pKi (Substance P antagonism Results)” value was < 6.
In the case of O=C(Cc1ccccc1)N[C@H](Cc1ccccc1)NC(=O)C1CCCCC1NC(=O)c1c[nH]c2ccccc12 (stereo partly drawn) [2 (fast), 1-{N-(1(H)indol-3-yl-carbonyl) (1R,2S)-2-aminocyclohexanecarbonyl}-amino-1-(phenylacetyl)amino-2-phenyl-ethane], the “pKi (Substance P antagonism Results)” value is reported as < 6.
With CN(C(=O)Cc1ccccc1)[C@H](Cc1ccc2ccccc2c1)NC(=O)C1CCCCC1NC(=O)c1c[nH]c2ccccc12 (stereo partly drawn) [3 (fast), 1-{N-(1(H)indol-3-yl-carbonyl) (1R,2S)-2-aminocyclohexanecarbonyl}-amino-1-(N-methyl-N-phenylacetyl)amino-2(2-naphthyl)ethane] the “pKi (Substance P antagonism Results)” value was 8.4.
CN(C(=O)Cc1ccccc1)[C@H](Cc1ccc2ccccc2c1)NC(=O)C1CCCCC1NC(=O)c1c[nH]c2ccccc12 (stereo partly drawn) [3 (slow), 1-{N-(1(H)indol-3-yl-carbonyl)(1S,2R)-2-aminocyclohexanecarbonyl}-amino-1-(N-methyl-N-phenylacetyl) amino-2(2-naphthyl)ethane] was tested, and the “pKi (Substance P antagonism Results)” value was < 5.
In the case of O=C(NC1CCCCC1C(=O)N[C@H](COCc1cc(C(F)(F)F)cc(C(F)(F)F)c1)Cc1ccc2ccccc2c1)c1c[nH]c2ccccc12 (stereo partly drawn) [4 (fast)], the “pKi (Substance P antagonism Results)” value is reported as < 5.
C[C@H](C(=O)N(C)[C@H](Cc1ccc2ccccc2c1)NC(=O)C1CCCCC1NC(=O)c1c[nH]c2ccccc12)c1ccccc1 (stereo partly drawn) [9 (fast), 1-{N-(1(H)indol-3-yl-carbonyl)(1R,2S)-2-aminocyclohexanecarbonyl}-amino-1-(N-methyl-N-((S)2-phenylpropionyl))amino-2-(2-naphthyl)ethane] was tested, and the “pKi (Substance P antagonism Results)” value was < 5.
C[C@@H](C(=O)N(C)[C@H](Cc1ccc2ccccc2c1)NC(=O)C1CCCCC1NC(=O)c1c[nH]c2ccccc12)c1ccccc1 (stereo partly drawn) [10 (fast), 1-{N-(1(H)indol-3-yl-carbonyl)(1R,2S)-2-aminocyclohexane-carbonyl}-amino-1-(N-methyl-N-((R)2-phenylpropionyl))Ammino-2-(2-naphthyl)ethane] was tested, and the “pKi (Substance P antagonism Results)” value was 8.7.
CN(C(=O)Cc1ccc(Cl)cc1)[C@H](Cc1ccc2ccccc2c1)NC(=O)C1CCCCC1NC(=O)c1c[nH]c2ccccc12 (stereo partly drawn) [11 (fast), 1-{N-(1(H)indol-3-yl-carbonyl)(1R,2S)-2-aminocyclohexanecarbonyl}-amino-1-(N-methyl-N-4-chlorophenylacetyl)amino-2(2-naphthyl)ethane] was tested, and the “pKi (Substance P antagonism Results)” value was 8.4.
For Cc1ccc(CC(=O)N(C)[C@H](Cc2ccc3ccccc3c2)NC(=O)C2CCCCC2NC(=O)c2c[nH]c3ccccc23)cc1 (stereo partly drawn) [12 (fast), 1-{N-(1(H)indol-3-yl-carbonyl)(1R,2S)-2-aminocyclohexanecarbonyl}-amino-1-(N-methyl-N-4-methylphenylacetyl)amino-2(2-naphthyl)ethane], the “pKi (Substance P antagonism Results)” value was 8.7.
